Reference: PMC7765794 (Nutrients, 2020)

Target: T1, human ODC (Homo sapiens, UniProt P11926)
T1 construct: His-tag (N); made in house; host or cells: Escherichia coli JM109
T1 sequence (P11926 1-461): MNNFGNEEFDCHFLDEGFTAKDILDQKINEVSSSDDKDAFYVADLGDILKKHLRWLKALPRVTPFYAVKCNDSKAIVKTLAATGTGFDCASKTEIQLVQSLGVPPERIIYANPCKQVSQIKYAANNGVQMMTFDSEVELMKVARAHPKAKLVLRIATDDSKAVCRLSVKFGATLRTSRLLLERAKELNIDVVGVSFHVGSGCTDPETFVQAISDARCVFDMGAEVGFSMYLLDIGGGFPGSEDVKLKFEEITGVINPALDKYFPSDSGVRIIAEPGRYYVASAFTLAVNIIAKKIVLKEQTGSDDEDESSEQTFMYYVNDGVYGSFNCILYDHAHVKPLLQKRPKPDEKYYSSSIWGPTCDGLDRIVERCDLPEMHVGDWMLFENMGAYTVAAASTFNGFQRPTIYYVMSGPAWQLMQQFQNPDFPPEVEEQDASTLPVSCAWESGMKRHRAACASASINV
Assay: ODC enzyme activity assay and inhibition study (CO2-L3K coupled spectrophotometric assay);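 note: His-tagged human ODC expressed in Escherichia coli, activity followed as decarboxylation coupled via PEP carboxylation and malate formation to NADH analog oxidation, absorbance drop at 405 nm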
Format: biochemical
Settings: for ODC suppression activity (in words): purified human ODC enzyme activity; for IC50 to ornithine decarboxylase (ODC) / IC50: purified human ODC, 37 °C, 10 mM ornithine, 0.2 mM PLP, n = 3; for IC50 relative to that of myricetin: IC50 greater than that of myricetin; for IC50: read-out: IC50 to ornithine decarboxylase (ODC)

SMILES | ODC suppression activity (in words) | IC50 to ornithine decarboxylase (ODC) | further results
O=c1cc(-c2ccccc2)oc2ccc(O)cc12 [6-Hydroxyflavone] | did not show any ODC suppression activity | No inhibition | –
O=c1c(O)c(-c2ccccc2)oc2ccccc12 [Flavonol] | little ODC suppression activity | No inhibition | –
O=c1c(O)c(-c2ccc(O)c(O)c2)oc2cc(O)cc(O)c12 [Quercetin] | – | – | IC50 relative to that of myricetin: 10 fold; IC50: 82 µM
O=c1cc(-c2ccc(O)cc2)oc2cc(O)cc(O)c12 [Apigenin] | did not show any ODC suppression activity | No inhibition | –
O=c1cc(-c2ccccc2)oc2cc(O)c(O)cc12 [6,7-Dihydroxyflavone] | – | – | IC50 relative to that of 7,8-DHF (IC50 greater than that of 7,8-DHF): approximately 100 fold; IC50: 289 µM
O=c1cc(-c2ccccc2)oc2cc(O)ccc12 [7-Hydroxyflavone] | did not show any ODC suppression activity | No inhibition | –
Cc1ncc(CO)c(C(=O)O)c1O [4-Pyridoxic acid, reference compound] | cannot inhibit ODC activity | – | ODC suppression activity (in words) (listed as 4-pyridoxic acid): none of these compounds were able to suppress ODC activity
COc1ccc(-c2coc3cc(O)cc(O)c3c2=O)cc1 [Biochanin] | did not show any ODC suppression activity | No inhibition | –
Cn1cnc2c1c(=O)[nH]c(=O)n2C [Theobromine, reference compound] | cannot inhibit ODC activity | – | ODC suppression activity (in words) (listed as theobromine): none of these compounds were able to suppress ODC activity
O=c1cc(-c2ccc(O)c(O)c2)oc2cc(O)cc(O)c12 [Luteolin] | – | – | IC50 relative to that of myricetin: 10 fold; IC50: 90 µM
O=c1c(-c2ccc(O)cc2)coc2cc(O)ccc12 [Daidzein] | did not show any ODC suppression activity | No inhibition | –
Cc1ncc(CO)c(C)c1O [4-Deoxypyridoxine, reference compound] | cannot inhibit ODC activity | – | ODC suppression activity (in words) (listed as 4-deoxypyridoxine): none of these compounds were able to suppress ODC activity
Cc1ncc(CO)c(CN)c1O [Pyridoxamine, reference compound] | cannot inhibit ODC activity | – | ODC suppression activity (in words) (listed as pyridoxamine): none of these compounds were able to suppress ODC activity
O=C1C[C@@H](c2ccc(O)cc2)Oc2cc(O)cc(O)c21 [Naringenin] | did not show any ODC suppression activity | No inhibition | –
Oc1ccc2c(c1)OCO2 [Sesamol, reference compound] | cannot inhibit ODC activity | – | ODC suppression activity (in words) (listed as sesamol): none of these compounds were able to suppress ODC activity
O=c1c(O)c(-c2ccc(O)cc2O)oc2cc(O)cc(O)c12 [Morin] | – | – | IC50 relative to that of myricetin: 10 fold; IC50: 82 µM
O=C1C[C@@H](c2ccccc2)Oc2cc(O)cc(O)c21 [Pinocembrin] | little ODC suppression activity | No inhibition | –
Cn1c(=O)c2c(ncn2C)n(C)c1=O [Caffeine, reference compound] | cannot inhibit ODC activity | – | ODC suppression activity (in words) (listed as caffeine): none of these compounds were able to suppress ODC activity
